The values below come from US20250115609A1, “AROMATIC HETEROCYCLIC COMPOUNDS, PREPARATION METHOD THEREFOR AND USES THEREOF” (Innovstone Therapeutics Limited, priority 2021, published 2025).

Structures are written as SMILES. Read-outs that look alike come from different tables or passages of the source.

One data set addresses hENPP1 enzyme (Homo sapiens (Human), UniProt P22413). Kind of data set: ENPP1 enzymatic inhibition in biochemical assay (TMP-pNP hydrolysis, OD405). The following applies: ENPP1 enzymatic inhibition activity, TMP-pNP substrate, pH 9.5. The source says:
ENPP1 was a transmembrane glycoprotein capable of hydrolyzing nucleotides and derivatives with a nucleotide-5′-monophosphate structure. ENPP1 was capable of hydrolyzing artificial thymidine 5′-monophosphate p-nitrophenyl ester (TMP-pNP) into nucleotide 5′-monophosphate and p-nitrophenol which was a chromogenic product. The formation amount of p-nitrophenol product could be directly measured by its absorbance at 405 nm, which was directly proportional to the enzyme activity.
The compound was dissolved in DMSO, with stock concentration of 1 mM, and diluted in a 4-fold serial gradient to make 10 concentration points. Echo was used to transfer 300 nL of gradient concentrations of compound to a 384-well assay plate (final concentration: starting at 10 μM, 4-fold serial gradient dilution, 10 concentration points). First, 15 μL of 0.2 ng/uL hENPP1 enzyme (2× final concentration) prepared in assay buffer (250 mM NaCl, 50 mM Tris, pH=9.5) was added to each well. Then, 15 μL of 400 μM TMP-pNP (2× final concentration) diluted in assay buffer was added. After incubating at 37° C. for 0.5 hrs, the OD405 nm value was read by the microplate reader. The percentage inhibition was calculated using the formula: % Inhibition Rate=(ODhigh signal control−ODsample well)/(ODhigh signal control−ODlow signal control)*100. The IC50 value was calculated using four-parameter fit. The high signal control was the DMSO group without inhibitors, and the low signal control was the blank control group.

Data set [1] can be described thus: Pharmacokinetics in mice, compound concentration by LC-MS/MS. In kind it is in vivo, CD-1 male mice. Particulars: for AUC(0-t): read-out: AUC0-24 h; for Vd: read-out: VSS.
Data set [2] concerns the target ENPP1 in cultured MDA-MB-231 cells (Homo sapiens (Human), UniProt P22413). Kind of data set: ENPP1 enzymatic inhibition in cellular assay (MDA-MB-231 cells, TMP-pNP). The following applies: ENPP1 enzymatic inhibition activity at the cellular level. It is filed as cell-based. How it is done: ENPP1 was mainly expressed on the surface of cell membranes and could hydrolyze 2′3′-cGAMP into 5′-GMP and 5′-AMP. Similarly, ENPP1 could also hydrolyze the synthetic phosphate TMP-pNP, generating nucleotide-5′-monophosphate and the chromogenic product p-nitrophenol. Therefore, TMP-pNP was used as a substrate to reflect the enzyme activity of ENPP1 in cultured MDA-MB-231 cells. The amount of p-nitrophenol formed in the culture medium was determined by absorbance at 405 nim, which was directly proportional to the activity of ENPP1.
MDA-MB-231 cells was seeded with a density of 6000 per well in 384-well plate and cultured overnight (about 18 hrs) at 37° C. The compound was diluted into a 50× serial gradient dilution using an assay buffer (250 mM NaCl, 50 mM Tris, pH=9.5), starting at 500 μM, and diluted in a 4-fold serial gradient to make 10 concentration points. The cell culture medium was removed, and 10 μL of gradient concentrations of compounds were added to each well of the 384-well assay plate (final concentration: starting at 10 μM, 4-fold serial gradient dilution, with 10 concentration points). Then, 10 μL of 1 mM TMP-pNP (2× final concentration) dissolved in the assay buffer was added to the well. After incubating at 37° C. for 3 hrs, the OD405 nm value was read by the microplate reader. The percentage inhibition was calculated using the formula: % Inhibition Rate=(ODhigh signal control−ODsample well)/(ODhigh signal control−ODlow signal control)*100. The IC50 value was calculated using four-parameter fit. The high signal control was the DMSO group without inhibitors, and the low signal control was the blank control group.

Setting [3] is: male, CD-1, mouse, plasma, 2 mg/kg, IV, 2 mpk.
[4] abbreviates: male, CD-1, mouse, plasma, 10 mg/kg, PO, 10 mpk.
Setting [5] is: male, CD-1, mouse, plasma, 10 mg/kg, PO, 10 mpk vs IV, 2 mpk.
[6] abbreviates: male, CD-1, mouse, plasma, 10 mg/kg, PO, 10 mpk, read-out: Cmax.
The mark [7] stands for this setting: male, CD-1, mouse, plasma, 10 mg/kg, PO, 10 mpk, read-out: Tmax.

hENPP1 enzyme, sequence (P22413 whole entry): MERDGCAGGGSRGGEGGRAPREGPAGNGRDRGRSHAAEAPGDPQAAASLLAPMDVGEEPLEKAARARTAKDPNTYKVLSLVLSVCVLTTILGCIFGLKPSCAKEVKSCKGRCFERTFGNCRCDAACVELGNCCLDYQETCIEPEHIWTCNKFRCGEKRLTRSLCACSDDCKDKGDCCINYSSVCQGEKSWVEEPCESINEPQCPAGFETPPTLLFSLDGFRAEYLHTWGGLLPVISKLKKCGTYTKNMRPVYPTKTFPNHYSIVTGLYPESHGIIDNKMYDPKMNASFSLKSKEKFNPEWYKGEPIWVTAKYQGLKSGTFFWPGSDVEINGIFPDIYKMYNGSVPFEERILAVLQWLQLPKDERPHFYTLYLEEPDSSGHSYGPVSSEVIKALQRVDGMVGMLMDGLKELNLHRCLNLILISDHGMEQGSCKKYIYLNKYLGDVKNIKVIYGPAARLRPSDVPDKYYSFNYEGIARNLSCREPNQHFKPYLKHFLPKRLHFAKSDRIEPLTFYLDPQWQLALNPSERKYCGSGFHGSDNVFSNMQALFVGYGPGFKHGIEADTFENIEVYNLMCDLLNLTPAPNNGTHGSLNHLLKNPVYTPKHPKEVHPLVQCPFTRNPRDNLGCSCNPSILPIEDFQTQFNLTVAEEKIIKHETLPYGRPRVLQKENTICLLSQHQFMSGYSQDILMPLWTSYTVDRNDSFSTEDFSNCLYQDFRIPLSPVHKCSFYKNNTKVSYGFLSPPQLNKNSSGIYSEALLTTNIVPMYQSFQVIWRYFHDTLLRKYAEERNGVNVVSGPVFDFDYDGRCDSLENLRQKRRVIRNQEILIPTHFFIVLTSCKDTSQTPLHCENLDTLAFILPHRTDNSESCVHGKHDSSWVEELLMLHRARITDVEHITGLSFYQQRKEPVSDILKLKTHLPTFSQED
ENPP1 in cultured MDA-MB-231 cells, sequence (P22413 whole entry): as above

Consider `COc1ccc2c3c(cnc2n1)NCC(=O)N3Cc1c(F)cc(S(N)(=O)=O)cc1F` [Compound 051], for which the concentration for half-maximal inhibition (IC50) against hENPP1 enzyme is 200 to 2000 pM.

With `COc1cc2ncc3c(c2cc1F)N(Cc1c(F)cc(S(N)(=O)=O)cc1F)C(=O)OC3` [Compound 048, 3,5-difluoro-4-((9-fluoro-8-methoxy-2-oxo-2H-[1,3]oxazino[5,4-c]quinolin-1(4H)-yl)methyl)benzenesulfonamide], in data set [1] (setting [3]), the clearance is 1.92 mL/min/kg, the half-life was 3.07 h, the AUC(0-t) is 18300 ng·h/mL and the Vd worked out at 0.46 L/kg. Moreover, in data set [1] (setting [4]), the half-life is 2.79 h and the AUC(0-t) amounted to 34800 ng·h/mL. The compound further displayed a bioavailability in data set [1] (setting [5]) of 38.1%. The Cmax in data set [1] (setting [6]) stood at 4870 ng/mL. For the same compound, the Tmax in data set [1] (setting [7]) is 0.583 h. Moreover, the EC50 in data set [2] was less than 500 pM. Besides, at hENPP1 enzyme, the IC50 is less than 100 pM.

`COc1ccc2c(ncc3c(=O)[nH]c(=O)n(Cc4c(F)cc(S(N)(=O)=O)cc4F)c32)n1` [Compound 017] returned an IC50 against hENPP1 enzyme of 200 to 2000 pM.

In the case of `COc1ccc2c3c(cnc2n1)CN(CC(F)(F)F)C(=O)N3Cc1c(F)cc(S(N)(=O)=O)cc1F` [Compound 056], the IC50 against hENPP1 enzyme fell in the range of 100 to 200 pM.

At hENPP1 enzyme, `COc1cc2ncc3c(c2cc1OC)N(Cc1c(F)cc(S(N)(=O)=O)cc1F)C(=O)OC3` [Compound 031, 4-((8,9-dimethoxy-2-oxo-2H-[1,3]oxazino[5,4-c]quinolin-1(4H)-yl)methyl)-3,5-difluorobenzenesulfonamide] gave an IC50 of 200 to 2000 pM.

In data set [1] (IV, 2 mpk), `COc1ccc2c(ncc3c2n(Cc2c(F)cc(S(N)(=O)=O)cc2F)c(=O)n3CC(F)(F)F)n1` [ZX-131, reference compound] returned an AUC0-24 h of 4419 ng·h/mL, a CL of 7.2 mL/min/kg, a T1/2 of 6.01 h and a VSS of 3.212 L/kg. In addition, in data set [1] (PO, 10 mpk), the AUC0-24 h turned out to be 3274 ng·h/mL, the maximum concentration (Cmax) is reported as 247 ng/mL, the T1/2 is 7.78 h and the time of peak concentration (Tmax) was determined as 6 h. For the same compound, in data set [1] (PO, 10 mpk vs IV, 2 mpk), the F % came out at 15%. The same compound returned an EC50 in data set [2] of 500 to 2000 pM. Moreover, the IC50 against hENPP1 enzyme was 100 to 200 pM.

As for `COc1ccc2c3c(cnc2n1)NCCN3Cc1c(F)cc(S(N)(=O)=O)cc1F` [Compound 066, 3,5-difluoro-4-((8-methoxy-3,4-dihydropyrazino[2,3-c][1,8]naphthyridine-1(2H)-yl)methyl)benzenesulfonamide], the IC50 on hENPP1 enzyme is 200 to 2000 pM.

For the compound `COc1ccc2c3c(cnc2n1)COC(=O)N3Cc1ccc(S(N)(=O)=O)cc1F` [Compound 071, 3-fluoro-4-((8-methoxy-2-oxo-2H-[1,3]oxazino[5,4-c][1,8]naphthyridin-1(4H)-yl)methyl)benzenesulfonamide], the IC50 against hENPP1 enzyme is 100 to 200 pM.

As to `COc1ccc2c3c(cnc2c1)N(C(=O)CO)CC(=O)N3Cc1c(F)cc(S(N)(=O)=O)cc1F` [Compound 072], the IC50 against hENPP1 enzyme lay in the range of 200 to 2000 pM.

In data set [2], `COc1ccc2c(ncc3[nH]c(=O)c(=O)n(Cc4c(F)cc(S(N)(=O)=O)cc4F)c32)n1` [Compound 062, 3,5-difluoro-4-((8-methoxy-2,3-dioxo-3,4-dihydropyrazino[2,3-c][1,8]naphthyridine-1(2H)-yl)methyl)benzenesulfonamide] displayed an EC50 of less than 500 pM. On hENPP1 enzyme, this compound showed an IC50 of less than 100 pM.

`COc1ccc2c(ncc3ccc(=O)n(Cc4c(F)cc(S(N)(=O)=O)cc4F)c32)n1` [Compound 008, 3,5-difluoro-4-((8-methoxy-2-oxopyrido[2,3-h][1,6]naphthyridine-1(2H)-yl)methyl)benzenesulfonamide]: in data set [1] (setting [3]), the clearance is 4.78 mL/min/kg, the half-life is 4.56 h, the AUC(0-t) is 7450 ng·h/mL and the Vd is 1.52 L/kg. In data set [1] (setting [4]), the half-life was 3.87 h and the AUC(0-t) is 7340 ng·h/mL. Also, the bioavailability in data set [1] (setting [5]) was 20%. Besides, the maximum concentration (Cmax) in data set [1] (setting [6]) stood at 798 ng/mL. Besides, the Tmax in data set [1] (setting [7]) turned out to be 3.17 h. Further, the EC50 in data set [2] is less than 500 pM. At hENPP1 enzyme, this compound registered an IC50 of 100 to 200 pM.

The compound `COc1ccc2c3c(cnc2n1)COC(=O)N3Cc1ccc(S(N)(=O)=O)cn1` [Compound 070, 6-((8-methoxy-2-oxo-2H-[1,3]oxazino[5,4-c][1,8]naphthyridin-1(4H)-yl)methyl)pyridine-3-sulfonamide] registered an IC50 against hENPP1 enzyme of 100 to 200 pM.

`COc1ccc2c3c(cnc2n1)N(C(=O)OC(C)(C)C)CCN3Cc1c(F)cc(S(N)(=O)=O)cc1F` [Compound 050, tert-butyl 1-(2,6-difluoro-4-sulfamoylbenzyl)-8-methoxy-2,3-dihydropyrazino[2,3-c][1,8]naphthyridine-4(1H)-carboxylate]: at hENPP1 enzyme, the IC50 lay in the range of 200 to 2000 pM.

On hENPP1 enzyme, `COc1ccc2c3c(cnc2n1)COC(=O)N3Cc1ccc(S(N)(=O)=O)cc1` [Compound 067, 4-((8-methoxy-2-oxo-2H-[1,3]oxazino[5,4-c][1,8]naphthyridin-1(4H)-yl)methyl)benzenesulfonamide] returned an IC50 of 200 to 2000 pM.

Compound `COc1ccc2c(ncc3ncc(=O)n(Cc4c(F)cc(S(N)(=O)=O)cc4F)c32)n1` [Compound 002, 3,5-difluoro-4-((8-methoxy-2-oxopyrazino[2,3-c][1,8]naphthyridin-1(2H)-yl)methyl)benzenesulfonamide] yielded an IC50 on hENPP1 enzyme of 200 to 2000 pM.

Take `COc1cnc2c(c1)ncc1[nH]c(=O)c(=O)n(Cc3c(F)cc(S(N)(=O)=O)cc3F)c12` [Compound 076]: the IC50 against hENPP1 enzyme was in the range of 100 to 200 pM.

As to `COc1ccc2c3c(cnc2n1)CCC(=O)N3Cc1c(F)cc(S(N)(=O)=O)cc1F` [Compound 054, 3,5-difluoro-4-((8-methoxy-2-oxo-3,4-dihydropyrido[2,3-h][1,6]naphthyridine-1(2H)-yl)methyl)benzenesulfonamide], in data set [1] (setting [3]), the clearance was 4.1 mL/min/kg, the half-life is 3.51 h, the AUC(0-t) was determined as 8090 ng·h/mL and the Vd was 0.826 L/kg. In data set [1] (setting [4]), the half-life is 3.39 h and the AUC(0-t) turned out to be 20100 ng·h/mL. This compound displayed a bioavailability in data set [1] (setting [5]) of 49.7%. The highest concentration (Cmax) in data set [1] (setting [6]) turned out to be 7900 ng/mL. Besides, in data set [1] (setting [7]), the Tmax was found to be 0.5 h. Further, at hENPP1 enzyme, the 50% inhibitory concentration (IC50) is less than 100 pM.

For `COc1ccc2c3c(cnc2c1)COC(=O)N3Cc1c(F)cc(S(N)(=O)=O)cc1F` [Compound 030, 3,5-difluoro-4-((8-methoxy-2-oxo-2H-[1,3]oxazino[5,4-c]quinolin-1(4H)-yl)methyl)benzenesulfonamide], the 50% inhibitory concentration (IC50) at hENPP1 enzyme was in the range of 100 to 200 pM.

As to `CCOc1ccc2c(ncc3ncc(=O)n(Cc4c(F)cc(S(N)(=O)=O)cc4F)c32)n1` [Compound 063], the IC50 at hENPP1 enzyme was 200 to 2000 pM.

`COc1ccc2c3c(cnc2n1)CN(C1CC1)C(=O)N3Cc1c(F)cc(S(N)(=O)=O)cc1F` [Compound 074]: at hENPP1 enzyme, the IC50 lay in the range of 100 to 200 pM.

On hENPP1 enzyme, `COc1nc2ncc3c(c2cc1F)N(Cc1c(F)cc(S(N)(=O)=O)cc1F)C(=O)CN3` [Compound 055] returned an IC50 of 100 to 200 pM.

For the compound `COc1cc2ncc3c(c2cc1F)N(Cc1c(F)cc(S(N)(=O)=O)cc1F)C(=O)NC3` [Compound 007, 3,5-difluoro-4-((9-fluoro-8-methoxy-2-oxo-3,4-dihydropyrimido[5,4-c]quinolin-1(2H)-yl)methyl)benzenesulfonamide], the EC50 in data set [2] is less than 500 pM. Also, the 50% inhibitory concentration (IC50) against hENPP1 enzyme lay within 100 to 200 pM.

`COc1ccc2c3c(cnc2n1)NCC(=O)N3Cc1c(F)cc(S(N)(=O)=O)cc1F` [Compound 049, 3,5-difluoro-4-((8-methoxy-2-oxo-3,4-dihydropyrazino[2,3-c][1,8]naphthyridine-1(2H)-yl)methyl)benzenesulfonamide] had an IC50 against hENPP1 enzyme of 200 to 2000 pM.
